Measured values taken from ChEMBL document CHEMBL5257023, “Identification of leads for antiproliferative activity on MDA-MB-435 human breast cancer cells through pharmacophore and CYP1A1-mediated metabolism” (Eur J Med Chem, 2016).

Tests used:
[1] = test system: NCI-H226; test: Anticancer activity against human NCI-H226 cells assessed as cell growth at 1 uM incubated for 48 hrs by SRB assay; assay type: functional; settings: read-out: Activity
[2] = target: T1, CYP1A1 (Homo sapiens, UniProt P04798); test: Inhibition of recombinant CYP1A1 (unknown origin) assessed as residual enzyme activity using 7-ethoxyresorufin as substrate at 1 uM incubated for 15 mins by resorufin dye based spectrofluorimetry (reference value: 100%); assay type: ADME; settings: recombinant CYP1A1, probe 7-ethoxyresorufin, read-out: Activity
T1 sequence (P04798 whole entry): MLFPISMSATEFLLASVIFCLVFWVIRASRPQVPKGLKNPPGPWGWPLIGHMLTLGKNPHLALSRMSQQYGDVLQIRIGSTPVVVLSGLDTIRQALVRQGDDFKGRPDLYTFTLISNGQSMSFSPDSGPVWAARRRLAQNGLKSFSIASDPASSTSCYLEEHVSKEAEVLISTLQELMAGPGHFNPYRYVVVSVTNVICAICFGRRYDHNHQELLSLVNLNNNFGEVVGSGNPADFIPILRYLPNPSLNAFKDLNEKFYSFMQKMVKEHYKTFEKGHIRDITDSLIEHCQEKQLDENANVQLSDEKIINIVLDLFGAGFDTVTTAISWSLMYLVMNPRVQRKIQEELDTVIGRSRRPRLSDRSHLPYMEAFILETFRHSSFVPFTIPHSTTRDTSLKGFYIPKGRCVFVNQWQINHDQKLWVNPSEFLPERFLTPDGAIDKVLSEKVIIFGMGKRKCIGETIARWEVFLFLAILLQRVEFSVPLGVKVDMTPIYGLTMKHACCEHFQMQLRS

[3] = target: T1, CYP1A1; test: Inhibition of recombinant CYP1A1 (unknown origin) assessed as residual enzyme activity using 7-ethoxyresorufin as substrate at 0.1 uM incubated for 15 mins by resorufin dye based spectrofluorimetry (reference value: 100%); assay type: ADME; settings: recombinant CYP1A1, probe 7-ethoxyresorufin, read-out: Activity
[4] = test system: MDA-MB-435; test: Anticancer activity against human MDA-MB-435 cells assessed as inhibition of cell growth incubated for 48 hrs by SRB assay; assay type: functional
[5] = test system: MDA-MB-435; test: Anticancer activity against human MDA-MB-435 cells assessed as cell growth at 100 uM incubated for 48 hrs by SRB assay; assay type: functional; settings: read-out: Activity
[6] = test system: MCF7; test: Anticancer activity against human MCF7 cells assessed as cell growth at 10 uM incubated for 48 hrs by SRB assay; assay type: functional; settings: read-out: Activity
[7] = test system: MDA-MB-468; test: Anticancer activity against human MDA-MB-468 cells assessed as cell growth at 100 uM incubated for 48 hrs by SRB assay; assay type: functional; settings: read-out: Activity
[8] = test system: MDA-MB-468; test: Anticancer activity against human MDA-MB-468 cells assessed as cell growth at 10 uM incubated for 48 hrs by SRB assay; assay type: functional; settings: read-out: Activity
[9] = test system: MDA-MB-435; test: Anticancer activity against human MDA-MB-435 cells assessed as cell growth at 0.1 uM incubated for 48 hrs by SRB assay; assay type: functional; settings: read-out: Activity
[10] = test system: MCF7; test: Anticancer activity against human MCF7 cells assessed as cell growth at 0.1 uM incubated for 48 hrs by SRB assay; assay type: functional; settings: read-out: Activity
[11] = test system: NCI-H226; test: Anticancer activity against human NCI-H226 cells assessed as inhibition of cell growth incubated for 48 hrs by SRB assay; assay type: functional
[12] = target: T1, CYP1A1; test: Inhibition of recombinant CYP1A1 (unknown origin) assessed as residual enzyme activity using 7-ethoxyresorufin as substrate at 50 uM incubated for 15 mins by resorufin dye based spectrofluorimetry (reference value: 100%); assay type: ADME; settings: recombinant CYP1A1, probe 7-ethoxyresorufin, read-out: Activity
[13] = test system: NCI-H226; test: Anticancer activity against human NCI-H226 cells assessed as cell growth at 10 uM incubated for 48 hrs by SRB assay; assay type: functional; settings: read-out: Activity
[14] = test system: NCI-H226; test: Anticancer activity against human NCI-H226 cells assessed as cell growth at 100 uM incubated for 48 hrs by SRB assay; assay type: functional; settings: read-out: Activity
[15] = test system: MCF7; test: Anticancer activity against human MCF7 cells assessed as cell growth at 1 uM incubated for 48 hrs by SRB assay; assay type: functional; settings: read-out: Activity
[16] = test system: MDA-MB-468; test: Anticancer activity against human MDA-MB-468 cells assessed as inhibition of cell growth incubated for 48 hrs by SRB assay; assay type: functional; settings: for CC50: read-out: LC50 (the source's name)
[17] = target: T2, Cytochrome P450 1A1 (Homo sapiens, UniProt P04798); test: Inhibition of recombinant CYP1A1 (unknown origin) assessed as decrease in EROD activity using 7-ethoxyresorufin as substrate upto 100 uM incubated for 15 mins by resorufin dye based spectrofluorimetry; assay type: ADME; settings: recombinant enzyme, 0.25 h
T2 sequence (P04798 whole entry): T1 sequence (P04798 whole entry)

[18] = test system: MDA-MB-435; test: Anticancer activity against human MDA-MB-435 cells assessed as cell growth at 10 uM incubated for 48 hrs by SRB assay; assay type: functional; settings: read-out: Activity
[19] = test system: NCI-H226; test: Anticancer activity against human NCI-H226 cells assessed as cell growth at 0.1 uM incubated for 48 hrs by SRB assay; assay type: functional; settings: read-out: Activity
[20] = test system: MDA-MB-468; test: Anticancer activity against human MDA-MB-468 cells assessed as cell growth at 1 uM incubated for 48 hrs by SRB assay; assay type: functional; settings: read-out: Activity
[21] = target: T1, CYP1A1; test: Inhibition of recombinant CYP1A1 (unknown origin) assessed as residual enzyme activity using 7-ethoxyresorufin as substrate at 10 uM incubated for 15 mins by resorufin dye based spectrofluorimetry (reference value: 100%); assay type: ADME; settings: recombinant CYP1A1, probe 7-ethoxyresorufin, read-out: Activity
[22] = test system: MDA-MB-468; test: Anticancer activity against human MDA-MB-468 cells assessed as cell growth at 0.1 uM incubated for 48 hrs by SRB assay; assay type: functional; settings: read-out: Activity
[23] = target: T1, CYP1A1; test: Inhibition of recombinant CYP1A1 (unknown origin) assessed as residual enzyme activity using 7-ethoxyresorufin as substrate at 0.01 uM incubated for 15 mins by resorufin dye based spectrofluorimetry (reference value: 100%); assay type: ADME; settings: recombinant CYP1A1, probe 7-ethoxyresorufin, read-out: Activity
[24] = test system: MCF7; test: Anticancer activity against human MCF7 cells assessed as cell growth at 100 uM incubated for 48 hrs by SRB assay; assay type: functional; settings: read-out: Activity
[25] = target: T1, CYP1A1; test: Inhibition of recombinant CYP1A1 (unknown origin) assessed as residual enzyme activity using 7-ethoxyresorufin as substrate at 100 uM incubated for 15 mins by resorufin dye based spectrofluorimetry (reference value: 100%); assay type: ADME; settings: recombinant CYP1A1, probe 7-ethoxyresorufin, read-out: Activity
[26] = test system: MDA-MB-435; test: Anticancer activity against human MDA-MB-435 cells assessed as cell growth at 1 uM incubated for 48 hrs by SRB assay; assay type: functional; settings: read-out: Activity
[27] = test system: MCF7; test: Anticancer activity against human MCF7 cells assessed as inhibition of cell growth incubated for 48 hrs by SRB assay; assay type: functional; settings: for CC50: read-out: LC50 (the source's name)

Structure (SMILES) | growth at 1 µM [1] [%] | activity at 0.25 h, 1 µM [2] [%] | activity at 0.25 h, 0.1 µM [3] [%] | GI50 [4] [µM] | LC50 [4] [µM] | TGI [4] [µM] | growth at 100 µM [5] [%] | growth at 10 µM [6] [%] | growth at 100 µM [7] [%] | growth at 10 µM [8] [%] | growth at 0.1 µM [9] [%] | growth at 0.1 µM [10] [%] | GI50 [11] [µM] | LC50 (concentration killing 50% of cells) [11] [µM] | TGI [11] [µM] | activity at 0.25 h, 50 µM [12] [%] | growth at 10 µM [13] [%] | growth at 100 µM [14] [%] | growth at 1 µM [15] [%] | GI50 [16] [µM] | other results
Cc1cc(C)cc(O[C@H](C)C(=O)Nc2ccc(F)c([N+](=O)[O-])c2)c1 | 71.8 | 94.2 | 93.5 | > 100 | > 100 | > 100 | 89.5 | 73.5 | -29.4 | 95.9 | 100 | 89.3 | > 100 | > 100 | > 100 | 96.6 | 65.6 | 58.2 | 85.5 | 40.9 | TGI [16]: 79.1 µM; CC50 [16]: > 100 µM; inhibition (INH) [17]: Not Active; growth at 10 µM [18]: 100%; growth at 0.1 µM [19]: 73.7%; growth at 1 µM [20]: 97.9%; activity at 0.25 h, 10 µM [21]: 95.7%; growth at 0.1 µM [22]: 99.1%; activity at 0.25 h, 0.01 µM [23]: 98.8%; growth at 100 µM [24]: 27.8%; activity at 0.25 h, 100 µM [25]: 96.4%; growth at 1 µM [26]: 100%; GI50 [27]: 61.6 µM; TGI [27]: > 100 µM; CC50 [27]: > 100 µM
C[C@H](Oc1ccc(Cl)cc1)C(=O)Nc1sc2c(c1C(N)=O)CCCC2 | 72.9 | 97.2 | 97.7 | > 100 | > 100 | > 100 | 86.9 | 71.7 | 65.5 | 78.7 | 100 | 81.5 | > 100 | > 100 | > 100 | 97.4 | 68.1 | 61.9 | 76.3 | > 100 | TGI [16]: > 100 µM; CC50 [16]: > 100 µM; inhibition (INH) [17]: Not Active; growth at 10 µM [18]: 100%; growth at 0.1 µM [19]: 80.9%; growth at 1 µM [20]: 100%; activity at 0.25 h, 10 µM [21]: 98.2%; growth at 0.1 µM [22]: 100%; activity at 0.25 h, 0.01 µM [23]: 100%; growth at 100 µM [24]: 27.2%; activity at 0.25 h, 100 µM [25]: 102%; growth at 1 µM [26]: 100%; GI50 [27]: 56.3 µM; TGI [27]: > 100 µM; CC50 [27]: > 100 µM
Cc1nn(C[C@@H](O)COc2ccc3c(C)cc(=O)oc3c2)c(C)c1C | 77.5 | 96.7 | 98.4 | > 100 | > 100 | > 100 | 77.9 | 69.2 | 33.7 | 94.8 | 100 | 80.4 | 96.5 | > 100 | > 100 | 101 | 72.8 | 49.1 | 74.2 | 76.6 | TGI [16]: > 100 µM; CC50 [16]: > 100 µM; inhibition (INH) [17]: Not Active; growth at 10 µM [18]: 100%; growth at 0.1 µM [19]: 88.9%; growth at 1 µM [20]: 98%; activity at 0.25 h, 10 µM [21]: 96.7%; growth at 0.1 µM [22]: 100%; activity at 0.25 h, 0.01 µM [23]: 99.3%; growth at 100 µM [24]: 25.3%; activity at 0.25 h, 100 µM [25]: 103%; growth at 1 µM [26]: 100%; GI50 [27]: 52.5 µM; TGI [27]: > 100 µM; CC50 [27]: > 100 µM
